Drawing on patent US20220348584A1, “PERK INHIBITING INDOLINYL COMPOUNDS” (HiberCell, Inc., priority 2019, published 2022), this text covers IC50 for 19 molecules.

The term IC50 denotes the concentration needed to halve the response being measured.

Experiment [1] has as its target T1, EIF2AK3 (PERK) catalytic domain (amino acids 536-1116) (Homo sapiens, UniProt Q9NZJ5).
T1 construct: EIF2AK3 (PERK) catalytic domain (amino acids 536-1116); purchased Invitrogen, Carlsbad, Calif
T1 sequence (Q9NZJ5 536-1116): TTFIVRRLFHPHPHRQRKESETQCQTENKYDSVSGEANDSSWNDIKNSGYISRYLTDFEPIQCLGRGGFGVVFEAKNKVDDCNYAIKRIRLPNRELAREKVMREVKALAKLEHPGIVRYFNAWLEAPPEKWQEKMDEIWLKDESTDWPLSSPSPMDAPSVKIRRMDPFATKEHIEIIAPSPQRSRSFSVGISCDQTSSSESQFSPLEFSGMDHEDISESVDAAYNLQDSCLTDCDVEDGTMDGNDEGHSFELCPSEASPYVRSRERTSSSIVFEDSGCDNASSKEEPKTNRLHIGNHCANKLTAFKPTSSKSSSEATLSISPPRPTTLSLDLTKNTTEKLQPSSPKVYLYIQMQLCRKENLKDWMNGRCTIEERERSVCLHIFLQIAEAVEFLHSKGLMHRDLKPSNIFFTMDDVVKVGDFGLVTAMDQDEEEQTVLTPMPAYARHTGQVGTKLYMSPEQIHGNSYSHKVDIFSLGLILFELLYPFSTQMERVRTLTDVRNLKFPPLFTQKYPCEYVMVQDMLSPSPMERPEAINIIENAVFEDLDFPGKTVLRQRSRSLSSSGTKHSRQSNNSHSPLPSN
Description: PERK In Vitro Activity Assay (Isolated), TR-FRET kinase assay. The class given is biochemical. The settings on record: isolated PERK enzyme, 1.5 μM ATP. The method, then:
Perform TR-FRET kinase assays in the absence or presence of inhibitors in a reaction buffer consisting of 50 mM HEPES, pH 7.5, 10 mM MgCb, 1.0 mM EGTA, and 0.01% Brij-35, and 100-200 nM GFP-eIF2a substrate. […] Add test compound, initiate the reaction by addition of enzyme, and incubate at room temperature for 45 minutes. Stop the reaction by addition of EDTA to a final concentration of 10 mM, add Terbium-labelled phospho-eIF2a antibody at a final concentration of 2 nM, and incubate for 90 minutes. Monitor the resulting fluorescence in an EnVison® Multilabel reader (PerkinElmer, Waltham, Mass.).
(In general: In TR-FRET formats the signal depends on donor and acceptor labels being close together.)

The test system of experiment [2] is HEK293-EGFP-eIF2a cells. Description: PERK Cellular Assay (TR-FRET, GFP-eIF2α, tunicamycin-induced ER stress). It is filed as cell-based, human. How it is done: Stable cell lines were created in HEK293 cells using lentiviral particles harboring an expression vector for GFP-eIF2α. Cells were selected using puromycin and enriched using fluorescence activated cell sorting against GFP. HEK293-EGFP-eIF2a cells were plated at 5000 cells/well in 384-well assay plates and incubated overnight at 37° C., 5% CO2. Inhibitor compounds were added to the wells by Echo acoustic dispensing and incubated for 30 minutes at 37° C., 5% CO2 prior to induction of ER stress by addition of tunicamycin to […] for 2 hours. Cells were lysed and TR-FRET was measured in an EnVision plate reader (PerkinElmer). FRET ratio data was normalized to signal from lysates treated with DMSO vehicle control and plotted as percent inhibition against 10-point; 3-fold dilution series of inhibitors. IC50 values were calculated using 4-parameter logistical fitting in XLFit.

The mark [3] stands for this setting: Homo sapiens, 2 h, HEK293-EGFP-eIF2a cells, tunicamycin 2 hours, TR-FRET, read-out: Cellular eIF2α IC50.
Where [4] appears, read: HEK293-EGFP-eIF2a cells, tunicamycin 2 hours, TR-FRET, read-out: Cellular eIF2α IC50.

The structures appear in SMILES notation. Like-named read-outs stand apart in the source and are kept apart here. A value given as a limit tells only on which side of the number the result lay.

In the case of `Cc1nc(N)c2c(-c3ccc4c(c3F)CCN4C(=O)C(O)c3ccccc3)cn(C)c2n1` (racemic) [Example 5, 1-(5-(4-amino-2,7-dimethyl-7H-pyrrolo[2,3-d]pyrimidin-5-yl)-4-fluoroindolin-1-yl)-2-hydroxy-2-phenylethanone], in experiment [1] (read-out: Biochemical IC50), the IC50 lay within 0.026 to 0.05 µM.
Turning to `Cc1nc(N)c2c(-c3ccc4c(c3F)CCN4C(=O)C(O)c3cccc(F)c3)cn(C)c2n1` (racemic) [Example 9, 1-(5-(4-amino-2,7-dimethyl-7H-pyrrolo[2,3-d]pyrimidin-5-yl)-4-fluoroindolin-1-yl)-2-(3-fluorophenyl)-2-hydroxyethanone], the IC50 in experiment [2] (setting [3]) fell in the range of 0.051 to 0.1 µM.
Consider `Cc1nc(N)c2c(-c3ccc4c(c3F)CCN4C(=O)C(O)c3cc(F)cc(F)c3)cn(C)c2n1` (racemic) [Example 10, 1-(5-(4-amino-2,7-dimethyl-7H-pyrrolo[2,3-d]pyrimidin-5-yl)-4-fluoroindolin-1-yl)-2-(3,5-difluorophenyl)-2-hydroxyethanone], for which the IC50 in experiment [1] (read-out: Biochemical IC50) and in experiment [2] (setting [3]) was 0.001 to 0.025 µM each time.
Consider `Cn1cc(-c2ccc3c(c2F)CCN3C(=O)C(O)c2ccccc2)c2c(N)ncnc21` (single isomer, unassigned) [Example 1, 1-(5-(4-amino-7-methyl-7H-pyrrolo[2,3-d]pyrimidin-5-yl)-4-fluoroindolin-1-yl)-2-hydroxy-2-phenylethanone], for which the IC50 in experiment [1] (read-out: Biochemical IC50) and in experiment [2] (setting [4]) was 0.001 to 0.025 µM in each case.
For the molecule `Cn1cc(-c2ccc3c(c2F)CCN3C(=O)C(O)c2ccccc2)c2c(N)ncnc21` (single isomer, unassigned) [Example 2, 1-(5-(4-amino-7-methyl-7H-pyrrolo[2,3-d]pyrimidin-5-yl)-4-fluoroindolin-1-yl)-2-hydroxy-2-phenylethanone], the IC50 in experiment [1] (read-out: Biochemical IC50) lay in the range of 0.051 to 0.1 µM; in experiment [2] (setting [4]), 0.101 to 0.25 µM.
Turning to `Cn1cc(-c2ccc3c(c2F)CCN3C(=O)C(N)c2ccccc2)c2c(N)ncnc21` (single isomer, unassigned) [Example 3, 2-amino-1-(5-(4-amino-7-methyl-7H-pyrrolo[2,3-d]pyrimidin-5-yl)-4-fluoroindolin-1-yl)-2-phenylethanone], the IC50 in experiment [1] (read-out: Biochemical IC50) and in experiment [2] (setting [3]) was 0.051 to 0.1 µM throughout.
Turning to `Cn1cc(-c2ccc3c(c2F)CCN3C(=O)C(N)c2ccccc2)c2c(N)ncnc21` (single isomer, unassigned) [Example 4, 2-amino-1-(5-(4-amino-7-methyl-7H-pyrrolo[2,3-d]pyrimidin-5-yl)-4-fluoroindolin-1-yl)-2-phenylethanone], the figures for the IC50 in experiment [1] (read-out: Biochemical IC50) and in experiment [2] (setting [4]) were 0.101 to 0.25 µM and 0.051 to 0.1 µM, respectively.
In the case of `CC(C)NC(=O)c1cc(-c2ccc3c(c2F)CCN3C(=O)C(O)c2cc(F)cc(F)c2)cnc1N` (single isomer, unassigned) [Example 6, 2-amino-5-(1-(2-(3,5-difluorophenyl)-2-hydroxyacetyl)-4-fluoroindolin-5-yl)-N-isopropylnicotinamide], the IC50 in experiment [1] (read-out: Biochemical IC50) is 0.101 to 0.25 µM; in experiment [2] (setting [4]), 0.251 to 0.5 µM.
In the same order, the values of `CC(C)NC(=O)c1cc(-c2ccc3c(c2F)CCN3C(=O)C(O)c2cc(F)cc(F)c2)cnc1N` (single isomer, unassigned) [Example 7, 2-amino-5-(1-(2-(3,5-difluorophenyl)-2-hydroxyacetyl)-4-fluoroindolin-5-yl)-N-isopropylnicotinamide] are 0.051 to 0.1 µM and 0.101 to 0.25 µM.
With `Cc1cn2c(C3CC(C)(O)C3)nc(-c3ccc4c(c3F)CCN4C(=O)C(O)c3cccc(F)c3)c2c(N)n1` (single isomer, unassigned) [Example 13, 1-(5-(8-amino-3-(3-hydroxy-3-methylcyclobutyl)-6-methylimidazo[1,5-a]pyrazin-1-yl)-4-fluoroindolin-1-yl)-2-(3-fluorophenyl)-2-hydroxyethanone], the IC50 in experiment [1] (read-out: Biochemical IC50) is 0.026 to 0.05 µM; in experiment [2] (setting [4]), 0.251 to 0.5 µM.
`Cc1cn2c(C3CC(C)(O)C3)nc(-c3ccc4c(c3F)CCN4C(=O)C(O)c3cccc(F)c3)c2c(N)n1` (single isomer, unassigned) [Example 14, 1-(5-(8-amino-3-(3-hydroxy-3-methylcyclobutyl)-6-methylimidazo[1,5-a]pyrazin-1-yl)-4-fluoroindolin-1-yl)-2-(3-fluorophenyl)-2-hydroxyethanone]: the values for the half-maximal inhibitory concentration (IC50) in experiment [1] (read-out: Biochemical IC50) and in experiment [2] (setting [4]) were 0.001 to 0.025 µM and 0.051 to 0.1 µM, respectively.
In the case of `Cc1cccc(C(O)C(=O)N2CCc3c2ccc(-c2nc(C4CC(C)(O)C4)n4cc(C)nc(N)c24)c3F)n1` (single isomer, unassigned) [Example 17, 1-(5-(8-amino-3-(3-hydroxy-3-methylcyclobutyl)-6-methylimidazo[1,5-a]pyrazin-1-yl)-4-fluoroindolin-1-yl)-2-hydroxy-2-(6-methylpyridin-2-yl)ethanone], the results for the 50% inhibitory concentration (IC50) in experiment [1] (read-out: Biochemical IC50) and in experiment [2] (setting [3]) were 0.051 to 0.1 µM and greater than 5 µM, respectively.
Turning to `Cc1cccc(C(O)C(=O)N2CCc3c2ccc(-c2nc(C4CC(C)(O)C4)n4cc(C)nc(N)c24)c3F)n1` (single isomer, unassigned) [Example 18, 1-(5-(8-amino-3-(3-hydroxy-3-methylcyclobutyl)-6-methylimidazo[1,5-a]pyrazin-1-yl)-4-fluoroindolin-1-yl)-2-hydroxy-2-(6-methylpyridin-2-yl)ethanone], the IC50 lay within 0.051 to 0.1 µM in experiment [1] (read-out: Biochemical IC50) and 3 to 4 µM in experiment [2] (setting [4]).
In the case of `Cc1nc(N)c2c(-c3ccc4c(c3)CCN4C(=O)C(O)c3cc(F)cc(C(F)(F)F)c3)cn(C)c2n1` (single isomer, unassigned) [Example 19, 1-(5-(4-amino-2,7-dimethyl-7H-pyrrolo[2,3-d]pyrimidin-5-yl)indolin-1-yl)-2-(3-fluoro-5-(trifluoromethyl)phenyl)-2-hydroxyethanone], the IC50 in experiment [1] (read-out: Biochemical IC50) fell in the range of 0.001 to 0.025 µM; in experiment [2] (setting [4]), 0.101 to 0.25 µM.
As to `Cc1nc(N)c2c(-c3ccc4c(c3)CCN4C(=O)C(O)c3cc(F)cc(C(F)(F)F)c3)cn(C)c2n1` (single isomer, unassigned) [Example 20, 1-(5-(4-amino-2,7-dimethyl-7H-pyrrolo[2,3-d]pyrimidin-5-yl)indolin-1-yl)-2-(3-fluoro-5-(trifluoromethyl)phenyl)-2-hydroxyethanone], the IC50 in experiment [1] (read-out: Biochemical IC50) and in experiment [2] (setting [4]) was 0.026 to 0.05 µM in each case.
With `Cc1cccc(CC(=O)N2CCc3c2ccc(-c2cn(C)c4nc(C)nc(N)c24)c3F)n1` [Example 21, 1-(5-(4-amino-2,7-dimethyl-7H-pyrrolo[2,3-d]pyrimidin-5-yl)-4-fluoroindolin-1-yl)-2-(6-methylpyridin-2-yl)ethanone], the results for the half-maximal inhibitory concentration (IC50) in experiment [1] (read-out: Biochemical IC50) and in experiment [2] (setting [3]) were 0.001 to 0.025 µM and 0.026 to 0.05 µM, respectively.
Take `Cn1cc(-c2ccc3c(c2F)CCN3C(=O)Cc2cccc(C(F)(F)F)n2)c2c(N)ncnc21` [Example 22, 1-(5-(4-amino-7-methyl-7H-pyrrolo[2,3-d]pyrimidin-5-yl)-4-fluoroindolin-1-yl)-2-(6-(trifluoromethyl)pyridin-2-yl)ethanone]: the IC50 in experiment [1] (Biochemical IC50 (μM)) is 0.001 to 0.025 µM; in experiment [2] (Homo sapiens, 2 h, read-out: Cellular eIF2α IC50 (μM)), 0.001 to 0.025 µM.
For the molecule `Cc1cccc(CC(=O)N2CCc3c2ccc(-c2nc(C)n4ccnc(N)c24)c3F)n1` [Example 23, 1-(5-(8-amino-3-methylimidazo[1,5-a]pyrazin-1-yl)-4-fluoroindolin-1-yl)-2-(6-methylpyridin-2-yl)ethanone], the IC50 in experiment [1] (read-out: Biochemical IC50) and in experiment [2] (setting [3]) was 0.026 to 0.05 µM in each case.
For the molecule `Cc1cccc(CC(=O)N2CCc3c2ccc(-c2nc(C)n4c(C)cnc(N)c24)c3F)n1` [Example 24, 1-(5-(8-amino-3,5-dimethylimidazo[1,5-a]pyrazin-1-yl)-4-fluoroindolin-1-yl)-2-(6-methylpyridin-2-yl)ethanone], the IC50 in experiment [1] (read-out: Biochemical IC50) was in the range of 0.051 to 0.1 µM; in experiment [2] (setting [3]) it was 0.026 to 0.05 µM.
